Tested on: MV-4-11 cells
Assay: Gene expression microarray analysis (Affymetrix PrimeView) and GSEA
Format: cell-based, human
Set-up: RFU PODN (11730768_x_at) / Fold change /veh PODN (11730768_x_at) / RFU LINC00158 (11744669_a_at) / Fold change /veh LINC00158 (11744669_a_at) / RFU DUSP10 (11751237_a_at) / Fold change /veh DUSP10 (11751237_a_at) / RFU ID3 (11757404_x_at) / Fold change /veh ID3 (11757404_x_at) / RFU PLEKHG5 (11737974_s_at) / Fold change /veh PLEKHG5 (11737974_s_at) / RFU LRRC4B (11730491_at) / Fold change /veh LRRC4B (11730491_at) / RFU GIMAP4 (11747438_a_at) / Fold change /veh GIMAP4 (11747438_a_at) / RFU KRT8 (11758183_x_at) / Fold change /veh KRT8 (11758183_x_at) / RFU CNN1 (11734310_a_at) / Fold change /veh CNN1 (11734310_a_at) / RFU VPS37D (11726825_at) / Fold change /veh VPS37D (11726825_at) / RFU C10orf10 (11716522_x_at) / Fold change /veh C10orf10 (11716522_x_at) / RFU KIR2DL2 /// KIR2DL4 /// KIR2DL5A /// KIR2DL5B /// KIR2DS1 /// KIR2DS2 /// KIR2DS3 /// KIR2DS4 /// KIR3DL3 /// KIR3DL3 /// KIR3DS1 (11738374_at) / Fold change /veh KIR2DL2 /// KIR2DL4 /// KIR2DL5A /// KIR2DL5B /// KIR2DS1 /// KIR2DS2 /// KIR2DS3 /// KIR2DS4 /// KIR3DL3 /// KIR3DL3 /// KIR3DS1 (11738374_at) / RFU C1QL1 (11718748_at) / Fold change /veh C1QL1 (11718748_at) / RFU TMPRSS4 (11747572_a_at) / Fold change /veh TMPRSS4 (11747572_a_at) / RFU HAMP (11756126_x_at) / Fold change /veh HAMP (11756126_x_at) / RFU RNFT2 (11725882_a_at) / Fold change /veh RNFT2 (11725882_a_at) / RFU NR4A2 (11747474_a_at) / Fold change /veh NR4A2 (11747474_a_at) / RFU ABCC12 (11746883_a_at) / Fold change /veh ABCC12 (11746883_a_at) / RFU TMEM136 (11760407_x_at) / Fold change /veh TMEM136 (11760407_x_at) / RFU CLDN22 /// WWC2 (11732394_at) / Fold change /veh CLDN22 /// WWC2 (11732394_at) / RFU HLA-DPB1 (11760878_x_at) / Fold change /veh HLA-DPB1 (11760878_x_at) / RFU SPINT1 (11716480_a_at) / Fold change /veh SPINT1 (11716480_a_at) / RFU GAP43 (11754022_s_at) / Fold change /veh GAP43 (11754022_s_at) / RFU A4GNT (11735810_at) / Fold change /veh A4GNT (11735810_at) / RFU PRB3 (11715151_x_at) / Fold change /veh PRB3 (11715151_x_at) / RFU TUBB4B (11761932_at) / Fold change /veh TUBB4B (11761932_at) / RFU CAPN14 (11732068_a_at) / Fold change /veh CAPN14 (11732068_a_at) / RFU TMCC2 (11721928_a_at) / Fold change /veh TMCC2 (11721928_a_at) / RFU IRGQ (11745062_a_at) / Fold change /veh IRGQ (11745062_a_at) / RFU FAM174B (11720279_a_at) / Fold change /veh FAM174B (11720279_a_at) / RFU TMPRSS4 (11748680_a_at) / Fold change /veh TMPRSS4 (11748680_a_at) / RFU FAM212B (11763350_a_at) / Fold change /veh FAM212B (11763350_a_at) / RFU PLEKHG5 (11743358_a_at) / Fold change /veh PLEKHG5 (11743358_a_at) / RFU ZSCAN30 (11745921_a_at) / Fold change /veh ZSCAN30 (11745921_a_at) / RFU CMKLR1 (11741424_a_at) / Fold change /veh CMKLR1 (11741424_a_at) / RFU LOC101060620 /// MAPK8IP1 (11723275_at) / Fold change /veh LOC101060620 /// MAPK8IP1 (11723275_at) / RFU SPTSSB (11747773_x_at) / Fold change /veh SPTSSB (11747773_x_at) / RFU PRSS12 (11739890_at) / Fold change /veh PRSS12 (11739890_at) / RFU BIN1 (11741810_x_at) / Fold change /veh BIN1 (11741810_x_at) / RFU WNT11 (11732464_a_at) / Fold change /veh WNT11 (11732464_a_at) / RFU C10orf10 (11716521_a_at) / Fold change /veh C10orf10 (11716521_a_at) / RFU C5orf56 (11738089_at) / Fold change /veh C5orf56 (11738089_at) / RFU CYB561 (11721691_x_at) / Fold change /veh CYB561 (11721691_x_at) / RFU ANKRD19P (11752326_a_at) / Fold change /veh ANKRD19P (11752326_a_at) / RFU OR2T12 /// OR2T33 /// OR2T8 (11738714_s_at) / Fold change /veh OR2T12 /// OR2T33 /// OR2T8 (11738714_s_at) / RFU VCAN (11748164_a_at) / Fold change /veh VCAN (11748164_a_at) / RFU JSRP1 (11732532_at) / Fold change /veh JSRP1 (11732532_at) / RFU KRTAP10-11 (11738290_x_at) / Fold change /veh KRTAP10-11 (11738290_x_at) / RFU MYO3A (11730013_a_at) / Fold change /veh MYO3A (11730013_a_at) / RFU EBF3 (11725865_a_at) / Fold change /veh EBF3 (11725865_a_at) / RFU CAMK2N1 (11719241_x_at) / Fold change /veh CAMK2N1 (11719241_x_at) / RFU C5orf56 (11738088_a_at) / Fold change /veh C5orf56 (11738088_a_at) / RFU OLFML3 (11715873_a_at) / Fold change /veh OLFML3 (11715873_a_at) / RFU LOC100653217 /// NTM (11731650_a_at) / Fold change /veh LOC100653217 /// NTM (11731650_a_at) / RFU MAPK11 (11762145_a_at) / Fold change /veh MAPK11 (11762145_a_at) / RFU FIZ1 (11724087_x_at) / Fold change /veh FIZ1 (11724087_x_at) / RFU OASL (11726364_x_at) / Fold change /veh OASL (11726364_x_at) / RFU SOX15 (11748057_x_at) / Fold change /veh SOX15 (11748057_x_at) / RFU CD79A (11719716_a_at) / Fold change /veh CD79A (11719716_a_at) / RFU HIST1H1D (11736915_at) / Fold change /veh HIST1H1D (11736915_at) / RFU CASKIN2 (11723855_a_at) / Fold change /veh CASKIN2 (11723855_a_at) / RFU LOC730098 (11760151_x_at) / Fold change /veh LOC730098 (11760151_x_at) / RFU OR4N2 (11742367_at) / Fold change /veh OR4N2 (11742367_at) / RFU PRRT2 (11749266_a_at) / Fold change /veh PRRT2 (11749266_a_at) / RFU SNX32 (11753110_a_at) / Fold change /veh SNX32 (11753110_a_at) / RFU CDHR5 (11726645_a_at) / Fold change /veh CDHR5 (11726645_a_at) / RFU RCAN1 (11760418_a_at) / Fold change /veh RCAN1 (11760418_a_at) / RFU FAM167A (11723789_a_at) / Fold change /veh FAM167A (11723789_a_at) / RFU FAM26E (11764081_at) / Fold change /veh FAM26E (11764081_at) / RFU ISYNA1 (11749810_s_at) / Fold change /veh ISYNA1 (11749810_s_at) / RFU ACY1 (11761880_at) / Fold change /veh ACY1 (11761880_at) / RFU 11764098_at / Fold change /veh 11764098_at / RFU SAMD14 (11745864_x_at) / Fold change /veh SAMD14 (11745864_x_at) / RFU NPB (11741838_a_at) / Fold change /veh NPB (11741838_a_at) / RFU TMPRSS6 (11731388_a_at) / Fold change /veh TMPRSS6 (11731388_a_at) / RFU KRTAP10-2 (11738614_at) / Fold change /veh KRTAP10-2 (11738614_at) / RFU ARHGAP8 /// PRR5-ARHGAP8 (11727945_x_at) / Fold change /veh ARHGAP8 /// PRR5-ARHGAP8 (11727945_x_at) / RFU KRTAP5-7 /// NADSYN1 (11734609_at) / Fold change /veh KRTAP5-7 /// NADSYN1 (11734609_at) / RFU RASL12 (11751679_a_at) / Fold change /veh RASL12 (11751679_a_at) / RFU CDKN2B (11736163_a_at) / Fold change /veh CDKN2B (11736163_a_at) / RFU PRF1 (11729649_at) / Fold change /veh PRF1 (11729649_at) / RFU, ZNF638 /// ZNF638-IT1 / Fold change vs veh, ZNF638 /// ZNF638-IT1 / RFU, PANK3 / Fold change vs veh, PANK3 / RFU, SH3YL1 / Fold change vs veh, SH3YL1 / RFU, ZEB2 / Fold change vs veh, ZEB2 / RFU, NRIP1 / Fold change vs veh, NRIP1 / RFU, PTTG1IP / Fold change vs veh, PTTG1IP / RFU, CAPN2 / Fold change vs veh, CAPN2 / RFU, MED14 / Fold change vs veh, MED14 / RFU, SNORA58 / Fold change vs veh, SNORA58 / RFU, C1orf63 / Fold change vs veh, C1orf63 / RFU, LRRFIP1 / Fold change vs veh, LRRFIP1 / RFU, NDUFAF7 / Fold change vs veh, NDUFAF7 / RFU, SLC12A2 / Fold change vs veh, SLC12A2 / RFU, IBTK / Fold change vs veh, IBTK / RFU, ESF1 / Fold change vs veh, ESF1 / Fold change vs veh, TMEM50B / RFU, TAOK1 / Fold change vs veh, TAOK1 / RFU, ACBD3 / Fold change vs veh, ACBD3 / RFU, TMA16 / Fold change vs veh, TMA16 / RFU, RWDD3 / Fold change vs veh, RWDD3 / RFU, BCAT1 / Fold change vs veh, BCAT1 / RFU, EDEM3 / Fold change vs veh, EDEM3 / RFU, TMEM33 / Fold change vs veh, TMEM33 / RFU, WDR75 / Fold change vs veh, WDR75 / RFU, AHCTF1 / Fold change vs veh, AHCTF1 / RFU, TFRC / Fold change vs veh, TFRC / RFU, ZDHHC17 / Fold change vs veh, ZDHHC17 / RFU, NOM1 / Fold change vs veh, NOM1 / RFU, ARL8B / Fold change vs veh, ARL8B / RFU, ZBTB11 / Fold change vs veh, ZBTB11 / RFU, TAMM41 / Fold change vs veh, TAMM41 / RFU, KIAA1704 /// LOC100996395 / Fold change vs veh, KIAA1704 /// LOC100996395 / RFU, ING1 / Fold change vs veh, ING1 / RFU, TRMT61B / Fold change vs veh, TRMT61B / RFU, FUBP3 / Fold change vs veh, FUBP3 / RFU, TP53 / Fold change vs veh, TP53 / RFU, TNKS2 / Fold change vs veh, TNKS2 / RFU, ZFP14 / Fold change vs veh, ZFP14 / RFU, ACTR2 / Fold change vs veh, ACTR2 / RFU, PPP3R1 / Fold change vs veh, PPP3R1 / RFU, PIK3R1 / Fold change vs veh, PIK3R1 / RFU, HNRNPA1 / Fold change vs veh, HNRNPA1 / RFU, RNF170 / Fold change vs veh, RNF170 / RFU, ZNF28 / Fold change vs veh, ZNF28 / RFU, RNGTT / Fold change vs veh, RNGTT / RFU, OGT / Fold change vs veh, OGT / RFU, BRD1 / Fold change vs veh, BRD1 / RFU, MARS / Fold change vs veh, MARS / RFU, ZNF655 / Fold change vs veh, ZNF655 / RFU, FAHD1 / Fold change vs veh, FAHD1 / RFU, BDP1 / Fold change vs veh, BDP1 / RFU, LRRCC1 / Fold change vs veh, LRRCC1 / RFU, ARID1A / Fold change vs veh, ARID1A / RFU, ZNF146 / Fold change vs veh, ZNF146 / RFU, ZNF330 / Fold change vs veh, ZNF330 / RFU, GPN3 / Fold change vs veh, GPN3 / RFU, C9orf123 / Fold change vs veh, C9orf123 / RFU, N4BP2L2 / Fold change vs veh, N4BP2L2 / RFU, ARFIP1 / Fold change vs veh, ARFIP1 / RFU, FAM179B / Fold change vs veh, FAM179B / RFU, BCL10 / Fold change vs veh, BCL10 / RFU, UHRF1BP1L / Fold change vs veh, UHRF1BP1L / RFU, BET1 / Fold change vs veh, BET1 / RFU, CNOT2 / Fold change vs veh, CNOT2 / RFU, ZNF268 / Fold change vs veh, ZNF268 / Fold change vs veh, ZNF507 / RFU, DGCR2 / Fold change vs veh, DGCR2 / RFU, WDSUB1 / Fold change vs veh, WDSUB1 / Fold change vs veh, HSP90B1 /// MIR3652 / RFU, ADSS / Fold change vs veh, ADSS / RFU, GK / Fold change vs veh, GK / RFU, ZNF148 / Fold change vs veh, ZNF148 / RFU, TAF9 / Fold change vs veh, TAF9 / RFU, SLC1A5 / Fold change vs veh, SLC1A5 / RFU, SLMO2 / Fold change vs veh, SLMO2 / RFU, ABCC4 / Fold change vs veh, ABCC4 / RFU, LOC101060439 /// RAP1B / Fold change vs veh, LOC101060439 /// RAP1B / RFU, RFX7 / Fold change vs veh, RFX7 / RFU, GTPBP10 / Fold change vs veh, GTPBP10 / RFU, CNEP1R1 / Fold change vs veh, CNEP1R1 / RFU, BIVM-ERCC5 /// ERCC5 / Fold change vs veh, BIVM-ERCC5 /// ERCC5 / RFU, ILF3 / Fold change vs veh, ILF3 / RFU 11762660_at / Fold change /veh 11762660_at / RFU VCAN (11757783_s_at) / Fold change /veh VCAN (11757783_s_at) / RFU DDX43 (11728927_at) / Fold change /veh DDX43 (11728927_at) / RFU KRT8 (11758188_x_at) / Fold change /veh KRT8 (11758188_x_at) / RFU NKD1 (11759106_at) / Fold change /veh NKD1 (11759106_at) / RFU SRD5A1 (11742802_a_at) / Fold change /veh SRD5A1 (11742802_a_at) / RFU TPSAB1 /// TPSB2 (11721975_s_at) / Fold change /veh TPSAB1 /// TPSB2 (11721975_s_at) / RFU GSTM3 (11746129_a_at) / Fold change /veh GSTM3 (11746129_a_at) / RFU IL23R (11737362_x_at) / Fold change /veh IL23R (11737362_x_at) / RFU TMEM51 (11727254_a_at) / Fold change /veh TMEM51 (11727254_a_at) / RFU PIWIL2 (11732686_x_at) / Fold change /veh PIWIL2 (11732686_x_at) / RFU ORM1 (11744905_x_at) / Fold change /veh ORM1 (11744905_x_at) / RFU CCDC152 (11743942_at) / Fold change /veh CCDC152 (11743942_at) / RFU ECM1 (11717891_a_at) / Fold change /veh ECM1 (11717891_a_at) / RFU IL23R (11748794_a_at) / Fold change /veh IL23R (11748794_a_at) / RFU TNFAIP8L3 (11732012_x_at) / Fold change /veh TNFAIP8L3 (11732012_x_at) / RFU MBOAT4 (11741988_at) / Fold change /veh MBOAT4 (11741988_at) / RFU 11764193_at / Fold change /veh 11764193_at / RFU TMEM53 (11763286_at) / Fold change /veh TMEM53 (11763286_at) / RFU MAGEB2 (11727129_at) / Fold change /veh MAGEB2 (11727129_at) / RFU TMEM200A (11744735_a_at) / Fold change /veh TMEM200A (11744735_a_at) / RFU CCDC152 (11751479_a_at) / Fold change /veh CCDC152 (11751479_a_at) / RFU FAM211A (11726209_a_at) / Fold change /veh FAM211A (11726209_a_at) / RFU RGS16 (11746705_a_at) / Fold change /veh RGS16 (11746705_a_at) / RFU VCAN (11755009_s_at) / Fold change /veh VCAN (11755009_s_at) / RFU RHOB (11743442_s_at) / Fold change /veh RHOB (11743442_s_at) / RFU RGS16 (11720943_a_at) / Fold change /veh RGS16 (11720943_a_at) / RFU RGS16 (11720944_at) / Fold change /veh RGS16 (11720944_at) / RFU, VPS4B / Fold change vs veh, VPS4B / RFU, CREB1 / Fold change vs veh, CREB1 / RFU, DNAJC13 / Fold change vs veh, DNAJC13 / RFU, GNAQ / Fold change vs veh, GNAQ / RFU, CDK5R1 / Fold change vs veh, CDK5R1 / RFU, ZRANB3 / Fold change vs veh, ZRANB3 / RFU, CUL4A / Fold change vs veh, CUL4A / RFU, CCNY / Fold change vs veh, CCNY / RFU, UFL1 / Fold change vs veh, UFL1 / RFU, COG3 / Fold change vs veh, COG3 / RFU, DIAPH2 / Fold change vs veh, DIAPH2 / RFU, SKA2 / Fold change vs veh, SKA2 / RFU, AFF3 / Fold change vs veh, AFF3 / RFU, LMF1 / Fold change vs veh, LMF1 / RFU, IPO11 / Fold change vs veh, IPO11 / RFU, DFFB / Fold change vs veh, DFFB / RFU, FOXP1 / Fold change vs veh, FOXP1 / RFU, CARD8 / Fold change vs veh, CARD8 / RFU, STRN3 / Fold change vs veh, STRN3 / RFU, ADK / Fold change vs veh, ADK / RFU, RASSF2 / Fold change vs veh, RASSF2 / RFU, WIPF1 / Fold change vs veh, WIPF1 / RFU, LARP1B / Fold change vs veh, LARP1B / RFU, RASA1 / Fold change vs veh, RASA1 / RFU, RB1 / Fold change vs veh, RB1 / RFU, PPFIA1 / Fold change vs veh, PPFIA1 / RFU, MAT2A / Fold change vs veh, MAT2A / RFU, CCT5 / Fold change vs veh, CCT5 / RFU, WDR92 / Fold change vs veh, WDR92 / RFU, CUX1 / Fold change vs veh, CUX1 / RFU, TTC7A / Fold change vs veh, TTC7A / RFU, TMEM135 / Fold change vs veh, TMEM135 / RFU, DEPTOR / Fold change vs veh, DEPTOR / RFU, CPM / Fold change vs veh, CPM / RFU, DNAJB6 / Fold change vs veh, DNAJB6 / RFU, CACNA2D3 / Fold change vs veh, CACNA2D3 / RFU, DTX4 / Fold change vs veh, DTX4 / RFU, TFCP2 / Fold change vs veh, TFCP2 / RFU, GMCL1 /// GMCL1P1 / Fold change vs veh, GMCL1 /// GMCL1P1 / RFU, AEBP2 / Fold change vs veh, AEBP2 / RFU, SNHG1 /// SNORD22 /// SNORD25 /// SNORD26 /// SNORD27 /// SNORD28 /// SNORD29 /// SNORD31 / Fold change vs veh, SNHG1 /// SNORD22 /// SNORD25 /// SNORD26 /// SNORD27 /// SNORD28 /// SNORD29 /// SNORD31 / Fold change (Aza/veh), C12orf56 (ProbeSet 11735607_a_at) / Fold change (ACY-1035/veh), C12orf56 (ProbeSet 11735607_a_at) / Fold change (Aza/veh), FGFR1OP (ProbeSet 11751329_s_at) / Fold change (ACY-1035/veh), FGFR1OP (ProbeSet 11751329_s_at) / Fold change (Aza/veh), VPS36 (ProbeSet 11739960_a_at) / Fold change (ACY-1035/veh), VPS36 (ProbeSet 11739960_a_at) / RFU SYPL1 (11715823_x_at) / Fold change /veh SYPL1 (11715823_x_at) / RFU IGFBP7 (11715501_s_at) / Fold change /veh IGFBP7 (11715501_s_at) / RFU REEP3 (11722064_at) / Fold change /veh REEP3 (11722064_at) / RFU IGLL1 (11728026_x_at) / Fold change /veh IGLL1 (11728026_x_at): dose or concentration left out as unconfirmed
Settings: ProbeSet 11719493_s_at; LIST B

For Nc1ccc(-c2cccs2)cc1NC(=O)c1ccc2c(c1)cc(C1CC1)n2CCN1CCOCC1 [ACY-1035], the “Fold change vs veh, TAF9” value was 0.84.
